Each block holds one molecule with its values, some of them ahead of it.
What was measured:
[1] = Pharmacokinetics, palbociclib triplet, CAPItello-292 Phase Ib; type: in vivo, human
Method: In the open-label Phase Ib part of the study: • The initial palbociclib cohort will receive capivasertib (320 mg oral twice daily, 4 days on and 3 days off for 4 weeks), palbociclib (125 mg, oral once daily, dosed continually for 21 days out of 28 days), and fulvestrant (500 mg intramuscular injection [IM] monthly [Day 1 of a 28-day cycle] with a loading dose of 500 mg 2 weeks after the first dose). • The initial ribociclib cohort will explore the combination of capivasertib (400 mg oral twice daily, 4 days on and 3 days off for 4 weeks), ribociclib (400 mg, oral once daily, dosed continually for 21 days out of 28 days), and fulvestrant (500 mg IM monthly [Day 1 of a 28-day cycle] with a loading dose of 500 mg 2 weeks after the first dose). • The initial abemaciclib cohort will explore the combination of capivasertib (400 mg oral twice daily, 4 days on and 3 days off for 4 weeks), abemaciclib (100 mg, oral twice daily, 28 days out of 28 days), and fulvestrant (500 mg IM monthly [Day 1 of a 28-day cycle] with a loading dose of 500 mg 2 weeks after the first dose).
At the time of data cut-off of 31 Oct. 2022, 39 patients had been treated with capivasertib in combination with palbociclib and fulvestrant across three dose levels. Dose 1 opened first; dose levels 2 and 3 opened simultaneously: • Dose level 1: capivasertib 320 mg+palbociclib 125 mg+fulvestrant 500 mg • Dose level 2: capivasertib 400 mg+palbociclib 100 mg+fulvestrant 500 mg • Dose level 3: capivasertib 400 mg+palbociclib 125 mg+fulvestrant 500 mg

[2] = Pharmacokinetics, ribociclib triplet (preliminary modelling from clinical data); type: in vivo, human; details: for Increase of capivasertib AUC vs historical monotherapy data: preliminary modelling from clinical data
Method: In the open-label Phase Ib part of the study: • The initial palbociclib cohort will receive capivasertib (320 mg oral twice daily, 4 days on and 3 days off for 4 weeks), palbociclib (125 mg, oral once daily, dosed continually for 21 days out of 28 days), and fulvestrant (500 mg intramuscular injection [IM] monthly [Day 1 of a 28-day cycle] with a loading dose of 500 mg 2 weeks after the first dose). • The initial ribociclib cohort will explore the combination of capivasertib (400 mg oral twice daily, 4 days on and 3 days off for 4 weeks), ribociclib (400 mg, oral once daily, dosed continually for 21 days out of 28 days), and fulvestrant (500 mg IM monthly [Day 1 of a 28-day cycle] with a loading dose of 500 mg 2 weeks after the first dose). • The initial abemaciclib cohort will explore the combination of capivasertib (400 mg oral twice daily, 4 days on and 3 days off for 4 weeks), abemaciclib (100 mg, oral twice daily, 28 days out of 28 days), and fulvestrant (500 mg IM monthly [Day 1 of a 28-day cycle] with a loading dose of 500 mg 2 weeks after the first dose). […]

[3] = system: participants with locally advanced (inoperable) or metastatic HR+/HER2− breast cancer; assay: Dose-limiting toxicities (DLTs), CAPItello-292 Phase Ib, palbociclib triplet; type: in vivo, human; details: triplet with capivasertib and fulvestrant
Description: The Phase Ib part of the study consists of an open-label, 3-arm dose finding phase to determine the safe and well tolerated doses and schedules (RP3D) of capivasertib plus CDK4/6i (palbociclib, ribociclib, or abemaciclib) and fulvestrant (the latter administered at fixed dose and schedule, as per label) as triplet combinations in participants with ABC. The maximum tolerated doses (MTD) may also be determined. […]

[4] = Pharmacokinetics, Japanese participants; type: in vivo, human (Japanese); details: 100 mg oral (Japanese) vs 125 mg oral (rest of the world), with capivasertib 400 mg; preliminary limited data
Description: (§1) For the Phase Ib part of the study, participants must be eligible for fulvestrant therapy and at least one of the following: palbociclib, ribociclib, or abemaciclib, as per local investigator assessment. Participants who received treatment with at least one prior endocrine therapy (alone or in combination) for ABC and a maximum of 2 lines prior chemotherapy (for global participants) or up to 1 prior line of chemotherapy (for Japanese participants) are eligible. […]

[5] = system: Japanese participants; assay: DLTs, Japanese participants; type: in vivo, human (Japanese); details: capivasertib + palbociclib 125 mg + fulvestrant
Description: as §1

[6] = Yu Y, et al. J Clin Pharmacol 2017; 57 (2): 173-184; cited from earlier work

Increase of capivasertib AUC vs historical monotherapy data ([2]; with ribociclib 400 mg, 95% CI 1% to 43%): 19% | Increase of capivasertib AUC vs historical monotherapy data ([2]; with ribociclib 600 mg, 95% CI 0% to 34%): 16%
Structure (SMILES): NC1(C(=O)N[C@@H](CCO)c2ccc(Cl)cc2)CCN(c2ncnc3[nH]ccc23)CC1 [capivasertib, (S)-4-amino-N-(1-(4-chlorophenyl)-3-hydroxypropyl)-1-(7H-pyrrolo[2,3-d]pyrimidin-4-yl) piperidine-4-carboxamide]
PK of capivasertib versus previous monotherapy data ([1]; in combination with palbociclib and fulvestrant): consistent with previous monotherapy data

Structure (SMILES): CC(=O)c1c(C)c2cnc(Nc3ccc(N4CCNCC4)cn3)nc2n(C2CCCC2)c1=O [palbociclib, 6-acetyl-8-cyclopentyl-5-methyl-2-{[5-(1-piperazinyl)-2-pyridinyl]amino}pyrido[2,3-d]pyrimidin-7 (8H)-one]
Cause of the most frequent DLT (neutropenia/neutrophil count decreased) [3]: driven by palbociclib | Palbociclib AUC accumulation, Day 11/Day 1 ratio ([1]; Cycle 1 Day 11 / Cycle 0 Day 1, with capivasertib and fulvestrant, 90% CI): 2.89 (90% CI 2.64-3.15) | Palbociclib AUC accumulation, Day 14/Day 1 ratio ([1]; Cycle 1 Day 14 / Cycle 0 Day 1, with capivasertib and fulvestrant, 90% CI): 2.77 (90% CI 2.54-3.03) | Increase of palbociclib area under curve (AUC) by capivasertib ([1]; based on observed and expected accumulation from Cycle 0, Day 1 to Cycle 1, Day 11 and Day 14): approximately 20% | Mean palbociclib plasma exposure, Japanese participants vs rest of the world [4]: roughly similar | Incidence of DLTs (febrile neutropenia) [5]: led to palbociclib dose de-escalation from 125 mg to 100 mg | Palbociclib expected accumulation ratio [6]: 2.4

Ribociclib exposure vs published population PK model ([2]; with capivasertib, consistent with DDI predictions based on capivasertib as a weak CYP3A inhibitor): generally within model predictions
Structure (SMILES): CN(C)C(=O)c1cc2cnc(Nc3ccc(N4CCNCC4)cn3)nc2n1C1CCCC1 [ribociclib, 7-cyclopentyl-N,N-dimethyl-2-{[5-(1-piperazinyl)-2-pyridinyl]amino}-7H-pyrrolo[2,3-d]pyrimidine-6-carboxamide]
